Reference: patent US8663629B2, “Kallikrein-binding “kunitz domain” proteins and analogues thereof” (Dyax Corp., priority 1994, dated 2014)
Bridge positions count the residues as written; N and C are the ends. Ends that are not written are not given here. * marks the point of attachment. CH2F = FC*

Experiments:
Trypsin [1] = details: ANGL87; cited from earlier work
plasma Kallikrein [2] = target: T1, plasma Kallikrein (Homo sapiens, UniProt P03952); details: ANGL87; cited from earlier work
Target sequence in this assay (P03952 20-390): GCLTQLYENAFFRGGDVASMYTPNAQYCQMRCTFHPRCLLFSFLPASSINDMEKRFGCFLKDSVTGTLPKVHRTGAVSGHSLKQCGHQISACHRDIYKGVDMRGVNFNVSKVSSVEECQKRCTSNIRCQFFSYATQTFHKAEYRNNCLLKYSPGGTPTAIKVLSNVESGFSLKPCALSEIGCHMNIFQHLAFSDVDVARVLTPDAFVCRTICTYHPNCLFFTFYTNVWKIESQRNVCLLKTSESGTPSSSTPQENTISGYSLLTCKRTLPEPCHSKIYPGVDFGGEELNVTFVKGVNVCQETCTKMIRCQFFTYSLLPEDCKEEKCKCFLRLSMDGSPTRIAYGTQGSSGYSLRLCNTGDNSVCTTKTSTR
Target sequence in this assay (P03952 391-638): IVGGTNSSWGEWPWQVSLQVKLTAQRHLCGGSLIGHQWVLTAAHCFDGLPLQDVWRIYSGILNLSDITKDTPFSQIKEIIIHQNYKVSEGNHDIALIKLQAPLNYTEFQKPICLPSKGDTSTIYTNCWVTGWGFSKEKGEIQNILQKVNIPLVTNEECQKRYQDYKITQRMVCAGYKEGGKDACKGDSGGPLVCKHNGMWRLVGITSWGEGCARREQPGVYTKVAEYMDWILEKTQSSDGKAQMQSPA

Plasmin [3] = target: T2, Plasmin (Homo sapiens, UniProt P00747); assay: biochemical
Text: (§1) A second method appropriate for measuring the affinity of inhibitors for enzymes is to measure the ability of the inhibitor to slow the action of the enzyme. This method requires, depending on the speed at which the enzyme cleaves substrate and the availability of chromogenic or fluorogenic substrates, tens of micrograms to milligrams of relatively pure inhibitor.

pKA (plasma kallikrein) = pKA (plasma kallikrein) (Homo sapiens, UniProt P03952); assay: biochemical
Text: as §1

plasma Kallikrein [4] = target: T1, plasma Kallikrein; assay: Display-phage binding to human plasma kallikrein-agarose beads; parameters: The light chain (248 residues) carries the catalytic site; purchased Calbiochem #420302
Protocol: This method is highly sensitive because the genetic packages can be amplified. We obtain at least semiquantitative values for the binding constants by use of a pH step gradient.
The overall scheme for selecting a LACI(K1) variant to bind to a given protease involves incubation of the phage-display library with the kallikrein-beads of interest in a buffered solution (PBS containing 1 mg/ml BSA) followed by washing away the unbound and poorly retained display-phage variant with PBS containing 0.1% Tween 20. Kallikrein beads were made by coupling human plasma Kallikrein (Calbiochem, San Diego, Calif., #420302) to agarose beads using Reactigel (6×) (Pierce, Rockford, Ill., #202606). […]
The neutralized eluted display-phage can be either used: • i) to inoculate an F^+ strain of E. coli to generate a new display-phage stock, to be used for subsequent rounds of selection (so-called conventional screening), or • ii) be used directly for another immediate round of selection with the protease beads (so-called quick screening). Typically, three rounds of either method, or a combination of the two, are performed to give rise to the final selected display-phage from which a representative number are sequenced and analyzed for binding properties either as pools of display-phage or as individual clones.
Target sequence in this assay (P03952 391-638 limits assumed): as the sequence (P03952 391-638) above
Target sequence in this assay (P03952 20-390 limits assumed): as the sequence (P03952 20-390) above

Trypsin [5] = assay: Display-phage binding to trypsin target (specificity); details: compared to the parental phage display LACI-K1
Plasmin [6] = target: T2, Plasmin; assay: Display-phage binding to plasmin target (specificity); details: compared to the parental phage display LACI-K1
Thrombin = Thrombin (Homo sapiens, UniProt P00734); assay: Display-phage binding to thrombin target (specificity); details: compared to the parental phage display LACI-K1

Chain of pKA (plasma kallikrein) (P03952 391-638 limits assumed): as the sequence (P03952 391-638) above
Chain of pKA (plasma kallikrein) (P03952 20-390 limits assumed): as the sequence (P03952 20-390) above
T2 sequence (P00747 581-810 limits assumed, species assumed): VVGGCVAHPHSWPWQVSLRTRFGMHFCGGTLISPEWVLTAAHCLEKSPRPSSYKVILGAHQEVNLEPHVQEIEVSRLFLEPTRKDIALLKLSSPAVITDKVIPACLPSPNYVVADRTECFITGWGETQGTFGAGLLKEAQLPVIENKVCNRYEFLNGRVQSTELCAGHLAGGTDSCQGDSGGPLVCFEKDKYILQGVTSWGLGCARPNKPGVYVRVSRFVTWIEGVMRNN
T2 sequence (P00747 97-580 partner limits assumed, species assumed): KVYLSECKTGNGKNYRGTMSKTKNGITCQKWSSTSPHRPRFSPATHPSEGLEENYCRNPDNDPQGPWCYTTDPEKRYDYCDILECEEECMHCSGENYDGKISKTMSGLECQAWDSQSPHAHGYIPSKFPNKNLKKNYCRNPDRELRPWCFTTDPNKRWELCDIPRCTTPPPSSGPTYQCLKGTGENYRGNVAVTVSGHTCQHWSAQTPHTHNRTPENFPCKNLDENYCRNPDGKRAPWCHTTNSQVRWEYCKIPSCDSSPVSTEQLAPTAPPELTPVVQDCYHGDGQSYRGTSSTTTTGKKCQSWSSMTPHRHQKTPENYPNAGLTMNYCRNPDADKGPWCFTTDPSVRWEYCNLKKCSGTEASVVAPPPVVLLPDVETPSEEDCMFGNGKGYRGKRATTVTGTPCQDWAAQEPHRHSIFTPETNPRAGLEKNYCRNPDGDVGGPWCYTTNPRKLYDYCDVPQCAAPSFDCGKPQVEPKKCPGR

Ala-Phe-Lys-CH2F
inhibition of trypsin (Trypsin [1]): active-centre-directed inhibitor | inhibition of plasma kallikrein (plasma Kallikrein [2]): active-centre-directed inhibitor

MHSFCAFKADDGHCKANHQRFFFNIFTRQCEEFSYGGCGGNQNRFESLEECKKMCTRD (disulfide 5-55, 14-38, 30-51) [KKII/3#6]
Ki (Plasmin [3]): 10 µM | Ki (pKA (plasma kallikrein)): < 0.0005 µM | Ki for kallikrein (pKA (plasma kallikrein); stated in words): nanomolar range | Ki for kallikrein relative to wild-type LACI and BPTI (pKA (plasma kallikrein); versus both wild-type LACI and BPTI): over 100 times

bovine pancreatic trypsin inhibitor [BPTI]
relative binding of phage display clones, target Kallikrein (plasma Kallikrein [4]; compared to the parental phage display LACI-K1): (1.7) | Relative Binding (plasma Kallikrein [4]; fraction bound relative to the parental display-phage LACI(K1)): 6.0 | relative binding of phage display clones, target Trypsin (Trypsin [5]): (0.3) | relative binding of phage display clones, target Trypsin, two washes (Trypsin [5]; two washes): (0.8) | relative binding of phage display clones, target Plasmin (Plasmin [6]): (88)^4 | relative binding of phage display clones, target Thrombin (Thrombin): (1.1)
